Values quoted from earlier work as cited in patent publication US20150275302A1, “DETERMINATION OF SINGLE NUCLEOTIDE POLYMORPHISMS USEFUL TO PREDICT RESPONSE FOR RASAGILINE” (TEVA PHARMACEUTICAL INDUSTRIES, LTD., priority 2014, published 2015).

Conditions: in vivo

Compound: C#CCN[C@@H]1CCc2ccccc21 [rasagiline, R(+)-N-propargyl-l-aminoindan]
- absolute bioavailability: about 36%
